Results: patent US20070060636A1, “High enantiomeric purity dexanabinol for pharmaceutical compositions” (priority 2002, published 2007)

Assays:
[1] = 14-day multiple dose pharmacokinetic/toxicity study, rat; type: in vivo, rats; conditions: for AUC∞ Ratio to Phase I / Cmax Ratio to Phase I / AUC∞ Ratio to Phase II / Cmax Ratio to Phase II: 15 mg/kg Day 14; for AUC∞ Ratio to Phase I / Cmax Ratio to Phase I: vs human 150 mg Phase I; for AUC∞ Ratio to Phase II / Cmax Ratio to Phase II: vs human 150 mg Phase II
Experimental: (§1) The pharmacokinetics of dexanabinol of high enantiomeric purity formulated in CREMOPHOR EL®:ethanol as described in Example 4 were investigated in rats, rabbits, and monkeys following intravenous administration of single doses, and 14 and 28 days of repeated dosing. Human pharmacokinetics was studied during Phase I and Phase II clinical studies. Dexanabinol used in the pharmacokinetic studies was formulated as drug concentrates of 50 and 100 mg/ml and diluted with sterile 0.9% NaCl solution prior to intravenous (i.v.) administration to the desired final doses. Determination of dexanabinol concentrations in plasma and brain extracts was carried out using a validated Gas Chromatography-Mass Spectra (GC-MS) assay following solid phase extraction of the drug and derivatization. The limit of quantitation of the assay is 0.1 ng/ml.
Pharmacokinetic parameters were estimated by a non-compartmental method using WinNonlin Professional version 3.2 (Pharsight Corp., Mountain View, Calif.). The maximum plasma concentration (Cmax), when the drug is administered by infusion, is the concentration at the end of infusion. The Cmax following intravenous bolus administration is the value estimated by the software to be the concentration at t=0. The terminal slope (X) was estimated by linear regression through the last time points and used to calculate the terminal half-life (t1/2) from the following equation: t1/2=0.693/λ The area under the curve from time of dosing through the last time point (AUCz) was calculated by the linear trapezoid method. The AUC extrapolated to infinity (AUC∞) was calculated from the following equation: AUC∞=AUCz+Cz/λ where Cz is the concentration at the last time point predicted by the linear regression. AUC∞ was normalized for dose (mg/kg) and presented as AUC∞/Dose. Mean residence time (MRT), when the drug is administered by infusion is described by the following equation: MRT=(AUMC/AUC)−(TI)/2 Mean residence time after i.v. bolus administration is described by the following equation: MRT=(AUMC/AUC) where AUMC is the area under the first moment curve and TI is the length of infusion. Plasma clearance (CL), and the apparent volume of distribution at steady state (Vss) were calculated from the following equations: CL=Dose/AUC∞ Vss=MRT×CL
In 14-day multiple dose pharmacokinetic studies, the NOAEL was 15 mg/kg/day in rats and 25 mg/kg/day in rabbits. In a 28-day study in monkeys the NOAEL was 25 mg/kg/day. Cmax and AUC observed following the last dose at the NOAEL in the multiple dose toxicity studies and the ratios of these values to those observed in the Phase I and II studies for the 150 mg dose are shown in Table 7.

[2] = system: intra-ocular pressure (IOP); assay: IOP lowering after topical administration in normotensive rabbits; type: in vivo, New Zealand White albino rabbits
Experimental: New Zealand White albino rabbits weighing 2-2.5 kg were acclimatized in our animal facility for at least a week prior to IOP measurements. Drug, saline and blank-vehicle groups (n=8-12 animals per group) were included. In most experiments, 50 μl drops were applied at 09:00 and measurements were taken 1 hour, 3, 5, and 7 hours later. Baseline IOP was individualized for each animal and time point prior to drug testing. IOP was measured by a Digilab Pneumatonometer, Model 30R. ΔIOP was calculated by subtracting the baseline IOP from IOP value measured after drug application at a corresponding time point. Maximal ΔIOP and area under the ΔIOP×hours curve (AUC) were calculated and averaged for each group. Data of IOP, AUC, blood pressure and toxicity were analyzed by the Wilcoxon-Rank test.

[3] = plasma and brain concentrations after bolus i.v. 4 mg/kg; type: in vivo, Sprague Dawley rats
Experimental: as §1
Brain pharmacokinetic parameters in animal studies were estimated by non-compartmental methods similar to those used for plasma data with the addition of an estimate of the time of maximum concentration (Tmax) which was assumed to be zero for the plasma data. Cmax is the concentration corresponding to Tmax. AUCz and AUC∞ were calculated as described above. Kp, brain-to-plasma partition coefficient, was determined by means of the area method and using the equation: Kp=AUC∞ brain/AUC∞ plasma […]

[4] = plasma, iv, rat female, 15 mg/kg i.v. daily, final dose Day 14 (NOAEL)
[5] = plasma, iv, rat male, 15 mg/kg i.v. daily, final dose Day 14 (NOAEL)

SMILES: CCCCCCC(C)(C)c1cc(O)c2c(c1)OC(C)(C)[C@H]1CC=C(CO)C[C@H]21 [dexanabinol, 1,1-dimethylheptyl-(3S,4S)-7-hydroxy-Δ^6-tetrahydrocannabinol]
- AUC(0-inf) [1, 4]: 58600 ng·h/mL
- Cmax at 14 days [1, 4]: 17400 ng/mL
- AUC(0-inf) [1, 5]: 32700 ng·h/mL
- Cmax [1, 5]: 30200 ng/mL
- AUC∞ Ratio to Phase I ([1]; rat female): 18.3
- Cmax Ratio to Phase I ([1]; rat female): 3.5
- AUC∞ Ratio to Phase II ([1]; rat female): 39.5
- Cmax Ratio to Phase II ([1]; rat female): 8.8
- AUC∞ Ratio to Phase I ([1]; rat male): 10.2
- Cmax Ratio to Phase I ([1]; rat male): 6.0
- AUC∞ Ratio to Phase II ([1]; rat male): 22.1
- Cmax Ratio to Phase II ([1]; rat male): 15.4
- NOAEL at 14 days ([1]; rat, in vivo, iv, 14-day multiple dose i.v.): 15 mg/kg/day
- AUC (ΔIOP×hours) ([2]; 0.02% topical): 6.4±2.5 mmHg×Hour
- maximal ΔIOP ([2]; 0.02% topical): 1.8±0.7 mmHg
- AUC (ΔIOP×hours) ([2]; 0.05% topical): 5.1±3.7 mmHg×Hour
- maximal ΔIOP ([2]; 0.05% topical): 1.8±0.9 mmHg
- maximal ΔIOP ([2]; 0.1% topical): 2.9±0.4 mmHg
- AUC (ΔIOP×hours) ([2]; 0.1% topical, ±SEM): 14.6±2.2 mmHg×Hour
- AUC (ΔIOP×hours) ([2]; 0.2% topical): 6.9±1.7 mmHg×Hour
- maximal ΔIOP ([2]; 0.2% topical): 2.2±0.6 mmHg
- IOP lowering effect compared to the vehicle and the saline ([2]; all doses 0.02%, 0.05%, 0.1%, 0.2%, masked study): small, yet statistically significant
- IOP lowering effect over three days ([2]; daily application for three days, n=8): sustained IOP lowering effect
- time after injection at which brain concentrations equilibrated with plasma concentration ([3]; male and female averaged): about 30 minutes
- differences between genders in some plasma pharmacokinetic parameters ([3]; plasma): 2-3 fold
